{"source": "patent US20140193846A1", "about": "“NOVEL APOC-I ISOFORMS AND THEIR USE AS BIOMARKERS AND RISK FACTORS OF ATHEROSCLEROTIC DISEASE” (SCOTT & WHITE HEALTHCARE, priority 2011, published 2014)", "key": {"[1]": {"system": "ASMC apoptosis mediated by HDL2 from subject 10", "test": "Effect of N-SMase inhibitor on HDL2-induced ASMC apoptosis", "format": "cell-based, human", "conditions": "GW 4869 20 umol/L; for effect of inhibitor on HDL2-induced ASMC apoptosis (words): HDL2 from subject 10", "method": "The same procedure described in detail by Kolmakova et al., Arterioscler. Thromb. Vasc. Biol., 24:264-269 (2004) was used. In brief, 10^3 human ASMC (Cambrex, Walkersville, Md.), were grown on sterilized glass cover slips in 6-well trays and treated with 2.5 μL of the various lipoprotein fractions per ml of medium. After 24 hour incubation, the medium was removed and cells were fixed and stained. The average ApoA-I concentration in the HDL2 and HDL3 fractions was ˜25 mg/dL and ˜40 mg/dL, respectively.\nThe effect of GW 4869 (20 umol/L), a noncompetitive inhibitor of N-SMase (Luberto C. et al., J. Biol Chem., 277(43):41128-41139 (2002)), on ASMC apoptosis mediated by HDL2 from subject 10 was studied and the results are shown in FIG. 9. […] The effect of HDL2 on apoptosis was also dose-dependent: when only 1 μl of HDL2 was used a 20.1% apoptosis of ASMC resulted as compared to ˜50% apoptosis when 2.5 μl HDL2 from the same subject was used."}, "[2]": {"system": "ICAM-1 expression by HAECs", "test": "ICAM-1 expression by HAECs exposed to lipoprotein fractions", "format": "cell-based, human", "conditions": "HAECs pre-treated with inhibitor"}, "[3]": {"system": "Human aortic endothelial cells (HAECs)", "test": "Nitric oxide (NO) release from HAECs incubated with HDL sub-fractions (DAF fluorescence)", "format": "cell-based", "conditions": "HAECs pretreated, then incubated with apoptotic HDL2", "method": "Human aortic endothelial cells (HAECs) were incubated with HDL sub-fractions for 12 h from a subject with apoptotic HDL2 (and CAD) and a subject with non-apoptotic HDL2 (without CAD). The cells were then stained with 4′5′-diamino flourescein 2-diacetate (DAF) (Invitrogen/Molecular Probes, CA), a fluorescent probe that allows for real-time detection of NO. Following incubation cells were washed with phosphate buffered saline (PBS) to remove unbound dye and mounted on a drop of 10% glycerol in PBS and photographed by fluorescence microscopy."}, "[4]": {"target": "T1, lecithin-cholesterol acyl transferase (LCAT) (Homo sapiens, UniProt P04180)", "T1 sequence (P04180 25-440)": "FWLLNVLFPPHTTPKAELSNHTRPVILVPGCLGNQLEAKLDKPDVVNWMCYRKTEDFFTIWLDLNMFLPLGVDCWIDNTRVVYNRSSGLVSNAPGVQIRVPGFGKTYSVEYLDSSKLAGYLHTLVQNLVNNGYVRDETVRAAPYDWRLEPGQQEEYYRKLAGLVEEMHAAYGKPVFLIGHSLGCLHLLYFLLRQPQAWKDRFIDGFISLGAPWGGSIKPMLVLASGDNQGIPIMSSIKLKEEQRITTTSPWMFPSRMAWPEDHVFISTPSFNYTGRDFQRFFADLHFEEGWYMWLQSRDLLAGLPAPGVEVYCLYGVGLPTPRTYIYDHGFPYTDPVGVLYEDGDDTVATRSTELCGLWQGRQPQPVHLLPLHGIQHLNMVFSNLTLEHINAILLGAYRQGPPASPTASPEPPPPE", "conditions": "% of the activity demonstrated by apoA-I; cited from earlier work"}}, "note": "Entries after “also recorded” stand apart in the source; their conditions may differ.", "data": [{"molecule": "O=C(/C=C/c1ccc(/C=C/C(=O)Nc2ccc(C3=NCCN3)cc2)cc1)Nc1ccc(C2=NCCN2)cc1", "note": "[GW4869]", "values": [{"measurement": "number of apoptotic cells with HDL2 plus inhibitor", "setting": "[1]; 1 μL HDL2 from subject 10, 20.1% without inhibitor", "value": 1.19, "unit": "%"}, {"measurement": "effect of inhibitor on HDL2-induced ASMC apoptosis (words)", "setting": "[1]", "value": "inhibits apoptosis"}, {"measurement": "effect of inhibitor on HDL2-induced ASMC apoptosis (words)", "setting": "[1]; listed as GW 4869", "value": "almost completely prevented HDL2-induced apoptosis"}]}, {"molecule": "CNC(=N)NCCC[C@H](N)C(=O)O", "note": "[NMLA, NG monomethyl-L-arginine]", "values": [{"measurement": "effect of pre-treating HAECs on HDL2-increased ICAM-1 expression", "setting": "[2]", "value": "attenuated"}]}, {"molecule": "S=C(S)N1CCCC1", "note": "[PDTC, Pyrrolidine dithiocarbamate]", "values": [{"measurement": "effect of pre-treating HAECs on HDL2-increased ICAM-1 expression", "setting": "[2]", "value": "attenuated"}, {"measurement": "effect of pretreatment on HDL2-induced NO release from HAECs", "setting": "[3]", "value": "markedly reduced NO release; also recorded: production of NO was blocked"}]}, {"molecule": "ApoC-I: mature 57 amino acid apolipoprotein C-I protein set forth in SEQ ID NO:6 (TPDVSSALDKLKEFGNTLEDKARELIBRINKQSELSAKMREWFSETFQKVKELKIDS; listed as Homo sapiens)", "values": [{"measurement": "LCAT stimulation, activity relative to apoA-I", "setting": "[4]", "value": "approximately 78%"}]}]}
